Patent EP0151577B1 (priority 1983, dated 1984)

How the values were obtained:
[1] = In vivo metabolism of radioactive compounds, hamster plasma; conditions: après 24 heures, figure 2
Description: La mesure de la radioactivite des diverses fractions isolées du sang des hamsters traités permet de caractériser les metabolites, lesquels sont ainsi isolés et identifies par électrophorèse. Les metabolites acides HIAA et IAA sont séparés ensemble.
On a porté le temps en abscisses (exprimé en heures) et en ordonnées le pourcentage du compose caractérisé dans le plasma.

Rythme cardiaque = assay: Cardiovascular activity: heart rate; type: in vivo
Description: (§1) Le protocole experimental était celui décrit dans "Sugar Derivatives of Indolamines. part V: Cardiovascular Effects and "Anti-stress" Activity of Desoxyfructose Derivative of Serotonin and 5-Metho-xy- tryptamin", L. Mester, M. Mester, K.P. Bhargava, C. Labrid, G. Dureng and M. Cheucle, THROMBOSIS […], 15,245,1979.

DOPA-oxydase = assay: Inhibition in the DOPA-oxydase + DOPA system; type: biochemical, champignons; conditions: concentrations inférieures a 10-^4M; figure 1
Description: D'autres essais ont été entrepris pour mesurer l'inhibition exercée par la DF-5HTP dans le système DOPA-oxydase + DOPA, par comparaison avec la désoxyfructosérotonine (DFS). Pour ce qui concerne l'inhibition de la DOPA-oxydase, on pourra se reporter a la methode de N.H. Horowitz, M. Fling et et C. Horn "Tyrosinase", dans Methods in Enzymology Vol. XVII- A, p. 615, Editors: Tabor and Tabor, Ac. Press, 1970.
L'effet de la désoxyfructo-sérotonine (DFS) sur les Mycobacteries de la lèpre est attribue a son effet inhibiteur sur la DOPA-oxydase de M. leprae. Une DOPA-oxydase semblable, isolée de champignons, est commercialisée (SIGMA) et a servi comme modèle afin de comparer l'effet inhibiteur de la DFS et du désoxyfructo-5-hydroxytryptophane sur cette DOPA-oxydase.
La figure 1 est un graphique dans lequel on a porté en abscisses la concentration de I'agent de traitement utilise et en ordonnées les valeurs de la coloration du milieu mesurée a 540 mµ, celles-ci étant en effet representatives de la concentration en substance capable de colorer le milieu. En presence d'un inhibiteur, la formation de la coloration est empêchée. Ainsi, plus les valeurs portées en ordonnées sont faibles, meilleure est I'inhibition procurée par le compose essayé.

Tension sanguine = assay: Cardiovascular activity: blood pressure; type: in vivo
Description: as §1

[2] = test system: réponse à l'obstruction de la carotide; assay: Cardiovascular activity: response to carotid occlusion (CO); type: in vivo
Description: as §1

M. Leprae = assay: Incorporation of 3H-DOPA by M. leprae in vitro; type: cell-based, Mycobacterium leprae; conditions: 6 h
Description: Le tableau 6 rassemble des résultats d'essai concernant l'activité du DF-5HTP sur l'incorporation de la DOPA dans les Mycobacteries de la lèpre. Le protocole experimental était celui décrit dans JAYARAMAN, P., […], P.R., MESTER, M. and MESTER, L. Inhibition of the incorporation of ^3H-DOPA in Mycobacterium leprae by Desoxyfructo-serotonin. Biochem. Pharm., 29, 2526,1980.
On a inoculé 5 x 10^6 M. leprae par tube; le milieu était un tampon phosphate à pH 6,8. La quantité de 3H-DOPA était de 1 µ. Ci/tube.
Protocole: Chaque tube de 0,5 ml est inocule de 5 x 10^6 M. leprae et de 1 µ Ci de ^3H-DOPA. Après 6 heures, I'incorporation de la DOPA radioactive est enregistrée en DPM selon la technique utilisée dans JAYARAMAN, P., […], P.R., MESTER, M. and MESTER, L. Inhibition of the Incorporation of ^3H-DOPA in Mycobacterium leprae by Desoxyfructo-serotonin. Biochem. Pharm., 29,2526,1980.

[3] = Acute toxicity in the mouse, DL50 i.v. (Behrens-Karber); conditions: in vivo, iv, souris, survivors checked 15 days after administration, read-out: DL 50 i.v.
Description: D'autres études pharmacologiques ont été entreprises, en particulier pour apprécier la toxicite aigue chez la souris. Les divers produits étudiés sont administrés a doses croissantes en progression arithmetique a des lots de 5 souris femelles SWISS, EOPS, NMRI/Han pesant 23 a 24 g.
Les produits sont solubilises dans I'eau distillée. Les DL 50 sont calculées par la méthode de BEHRENS (B.) et KARBER (C.). Le nombre d'animaux survivants dans les differents lots est vérifié 15 jours après I'administration des produits. La toxicité aigue (DL 50) exprimée en g/kg est supérieure a 5, avec la voie d'administration i.v. pour le DF-5HTP un produit représentatif selon l'invention.

souris = assay: Anti-stress activity: swimming endurance; type: in vivo; conditions: 174 mg/kg i.p., souris observed up to 540 min; témoins 385 ± 31 min
Method: Au tableau 4, la lettre N designe le nombre d'animaux (souris). Un astérisque indique une activite importante. Deux astérisques indiquent une possibilité d'activité positive. Dans I'essai d'endurance a la nage, on a observe les souris jusqu'à 540 minutes, la durée moyenne de nage pour les souris témoins étant de 385 ± 31 minutes.
(N) - représente le nombre d'animaux * - activité importante ** - activite positive possible Pour I'endurance a la nage, les souris ont été observées jusqu'à 540 min, la durée moyenne de nage chez les souris témoins était de 385 + 31 min. *** - La leucocytose a été induite par 0,1 ml de lait (sous-cutanée) avant traitement avec le medicament.

[4] = 10 mg par voie cérébroventriculaire

Question: Which “taux du compose non transformé dans le plasma” value [1] does the source give for O=C(O)C(Cc1c[nH]c2ccc(O)cc12)NCC1(O)OCC(O)C(O)C1O (stereo not drawn) [DF-5HTP, N-1-desoxyfructo-5-hydroxytryptophane] here?
Answer: The value was “considerable”.

Question: And the “Rythme cardiaque Durée (min)” value (Rythme cardiaque; [4])?
Answer: The value was “non mani-festée à 150”.

Question: What about the “Rythme cardiaque Mesure à” value (Rythme cardiaque; [4]) of the same compound?
Answer: Its value is 30 min.

Question: And the “Rythme cardiaque Pic” value (Rythme cardiaque; [4])?
Answer: Its value is 75 min.

Question: And the “Rythme cardiaque Durée” value (Rythme cardiaque; 100 mg par voie intraveineuse)?
Answer: The value was 45 min.

Question: What about the “Rythme cardiaque Mesure à” value (Rythme cardiaque; 100 mg par voie intraveineuse) of the same compound?
Answer: Its value is 5 min.

Question: And the “Rythme cardiaque Pic” value (Rythme cardiaque; 100 mg par voie intraveineuse)?
Answer: The value was 10 min.

Question: What about the “activité inhibitrice sur la DOPA-oxydase (coloration du milieu mesurée a 540 mµ)” value (DOPA-oxydase) of the same compound?
Answer: The value was “comparable a celle de la DFS”.

Question: And the “Tension sanguine Durée” value (Tension sanguine; [4])?
Answer: The value was 50 min.

Question: What about the “Tension sanguine Mesure à” value (Tension sanguine; [4]) of the same compound?
Answer: Its value is 1 min.

Question: What about the “Tension sanguine Pic” value (Tension sanguine; [4]) of the same compound?
Answer: The value was 5 min.

Question: And the “Tension sanguine Durée” value (Tension sanguine; 100 mg par voie intraveineuse)?
Answer: Its value is 30 min.

Question: What about the “Tension sanguine Mesure à (min)” value (Tension sanguine; 100 mg par voie intraveineuse) of the same compound?
Answer: Its value is “immé-diat”.

Question: What about the “Tension sanguine Pic” value (Tension sanguine; 100 mg par voie intraveineuse) of the same compound?
Answer: The value was 1 min.

Question: And the “REPONSE CO Durée” value [2, 4]?
Answer: Its value is 120 min.

Question: And the “REPONSE CO Mesure à” value [2, 4]?
Answer: Its value is 30 min.

Question: What about the “REPONSE CO Pic” value [2, 4] of the same compound?
Answer: Its value is 30 min.

Question: And the “REPONSE CO Durée” value ([2]; 100 mg par voie intraveineuse)?
Answer: The value was 45 min.

Question: What about the “REPONSE CO Mesure à” value ([2]; 100 mg par voie intraveineuse) of the same compound?
Answer: Its value is 1 min.

Question: What about the “REPONSE CO Pic” value ([2]; 100 mg par voie intraveineuse) of the same compound?
Answer: The value was 1 min.

Question: And the “incorporation de 3H-DOPA par M. Leprae” value (M. Leprae; 1 µg/ml, Armadillo M.Leprae N°2275/5, témoins 5977)?
Answer: The value was 2922 DPM.

Question: What about the “incorporation de 3H-DOPA par M. Leprae” value (M. Leprae; 1 µg/ml, Armadillo M.Leprae N°2275/5 Tués par la chaleur, témoins 915) of the same compound?
Answer: The value was 1008 DPM.

Question: What about the “incorporation de 3H-DOPA par M. Leprae” value (M. Leprae; 1 µg/ml, Armadillo M.Leprae N°2457/103, témoins 4215) of the same compound?
Answer: Its value is 2555 DPM.

Question: And the “incorporation de 3H-DOPA par M. Leprae” value (M. Leprae; 1 µg/ml, Armadillo M.Leprae N°2457/103 Tués par la chaleur, témoins 2855)?
Answer: The value was 2660 DPM.

Question: What about the “incorporation de 3H-DOPA par M. Leprae” value (M. Leprae; 5 µg/ml, Armadillo M.Leprae N°2275/5, témoins 5977) of the same compound?
Answer: Its value is 1599 DPM.

Question: And the “incorporation de 3H-DOPA par M. Leprae” value (M. Leprae; 5 µg/ml, Armadillo M.Leprae N°2275/5 Tués par la chaleur, témoins 915)?
Answer: Its value is 732 DPM.

Question: And the “incorporation de 3H-DOPA par M. Leprae” value (M. Leprae; 5 µg/ml, Armadillo M.Leprae N°2457/103, témoins 4215)?
Answer: The value was 1930 DPM.

Question: And the “incorporation de 3H-DOPA par M. Leprae” value (M. Leprae; 5 µg/ml, Armadillo M.Leprae N°2457/103 Tués par la chaleur, témoins 2855)?
Answer: Its value is 2675 DPM.

Question: What about the LD50 at 360 h [3] of the same compound?
Answer: The LD50 at 360 h was greater than 5000 mg/kg.

Question: And the “Endurance à la nage % d'augmentation” value (souris)?
Answer: The value was 40^** %.
